Measurements from US8906929B2, “Inhibitors of human immunodeficiency virus replication” (priority 2012, dated 2014).

Test system: recombinant NL-Rluc virus
Assay: Inhibition of HIV replication (NL-RLuc virus in MT-2 cells, luciferase readout)
Type: cell-based
Details: 5 days of incubation, 10% FBS
[1] = Human immunodeficiency virus 1, MT2, 120 h

Compound	EC50 [1] [nM]	EC50 [nM]
Cc1nc2cc3nn2c(c1[C@H](OC(C)(C)C)C(=O)O)N1CCC(C)(CC1)OCC=CCCc1ccccc1-c1cccc-3c1 [Example 18, (2S)-2-(tert-Butoxy)-2-[4,27-dimethyl-26-oxa-1,5,7,8-tetraazahexacyclo[25.2.2.1^6,^9.1^10,^14.0^2,^7.0^15,^20]tritriaconta-2,4,6(33),8,10(32),11,13,15(20),16,18,23-undecaen-3-yl]acetic acid]	16	
Cc1nc2cc3nn2c(c1[C@H](OC(C)(C)C)C(=O)O)N1CCC(C)(CC1)OCCC[C@H](C)Oc1ccccc1-c1cccc-3c1 [Example 24, (2S)-2-(tert-Butoxy)-2-[(22S)-4,22,27-trimethyl-21,26-dioxa-1,5,7,8-tetraazahexacyclo[25.2.2.1^6,^9.1^10,^14.0^2,^7.0^15,^20]tritriaconta-2,4,6(33),8,10(32),11,13,15(20),16,18-decaen-3-yl]acetic acid]	8	
Cc1nc2cc3nn2c(c1[C@H](OC(C)(C)C)C(=O)O)-c1ccc2c(c1Cl)N(C/C=C/CCc1cccc(c1)-c1cccc-3c1)CCO2 [Example 2, (2S)-2-(tert-Butoxy)-2-[(22E)-32-chloro-4-methyl-28-oxa-5,7,8,25-tetraazaheptacyclo[23.6.2.1^6,^9.1^10,^14.1^15,^19.0^2,^7.0^29,^33]hexatriaconta-1 (31), 2,4,6(36),8,10(35), 11, 13, 15(34), 16,18,22,29,32-tetradecaen-3-yl]acetic acid]	722	
Cc1nc2cc3nn2c(c1[C@H](OC(C)(C)C)C(=O)O)-c1ccc2c(c1)[C@H](CCCCOc1ccccc1-c1cccc-3c1)CCO2 (single isomer, unassigned) [Example 12]	7	
Cc1nc2cc3nn2c(c1[C@H](OC(C)(C)C)C(=O)O)N1CCC(C)(CC1)OC/C=C\COc1cc(F)ccc1-c1cccc-3c1 [Example 47, (2S)-2-(tert-Butoxy)-2-[(23Z)-18-fluoro-4,2,7-dimethyl-21,26-dioxa-1,5,7,8-tetraazahexacyclo[25.2.2.1^6,^9.1^10,^14.0^2,^7.0^15,^20]tritriaconta-2,4,6(33),8,10(32),11,13,15(20),16,18,23-undecaen-3-yl]acetic acid]	14	
Cc1ccc2c(c1)-c1cccc(c1)-c1cc3nc(C)c([C@H](OC(C)(C)C)C(=O)O)c(n3n1)N1CCC(C)(CC1)OCCCC(C)C(C)O2 (single isomer, unassigned) [Example 95]		36
Cc1ccc2c(c1F)-c1cccc(c1)-c1cc3nc(C)c([C@H](OC(C)(C)C)C(=O)O)c(n3n1)N1CCC(C)(CC1)OCCCC[C@H](C)O2 [Example 70, (2S)-2-(tert-Butoxy)-2-[(22S)-16-fluoro-4,17,22,28-tetramethyl-21,27-dioxa-1,5,7,8-tetraazahexacyclo[26.2.2.1^6,^9.1^10,^14.0^2,^7.0^15,^20]tetratriaconta-2,4, 6(34), 8, 10(33), 11, 13, 15(20),16,18-decaen-3-yl]acetic acid]	19	
Cc1nc2cc3nn2c(c1[C@H](OC(C)(C)C)C(=O)O)N1CCC(C)(CC1)OCCCCCc1ccccc1-c1cccc-3c1 [Example 19, (2S)-2-(tert-Butoxy)-2-{4,27-dimethyl-26-oxa-1,5,7,8-tetraazahexacyclo[25.2.2.1^6,^9.1^10,^14. 0^2,^7. 0^15,^20]-tritriaconta-2,4,6(33),8,10(32),11,13,15(20),16,18-decaen-3-yl}acetic acid]	21	
Cc1nc2cc3nn2c(c1[C@H](OC(C)(C)C)C(=O)O)N1CCC(C)(CC/C=C\CCc2ccncc2-c2cccc-3c2)CC1 [Example 51, (2S)-2-(tert-Butoxy)-2-[(23Z)-4,27-dimethyl-1,5,7,8,17-pentaazahexacyclo[25.2.2.1^6,^9.1^10,^14.0^2,^7.0^15,^20]tritriaconta-2,4,6(33),8,10(32),11,13,15(20),16,18,23-undecaen-3-yl]acetic acid]	6	
Cc1nc2cc3nn2c(c1[C@H](OC(C)(C)C)C(=O)O)N1CCC(C)(CC1)OCCCCOc1ccccc1-c1cccc-3c1 [Example 21, (2S)-2-(tert-Butoxy)-2-{4,27-dimethyl-21,26-dioxa-1,5,7,8-tetraazahexacyclo[25.2.2.1^6,^9.1^10,^14.0^2,^7.0^15,^20]-tritriaconta-2,4, 6(33), 8, 10(32), 11, 13, 15(20),16,18-decaen-3-yl}acetic acid]	7	
Cc1nc2cc3nn2c(c1[C@H](OC(C)(C)C)C(=O)O)N1CCC(C)(CC1)OCCCCCc1ccncc1-c1cccc-3c1 [Example 38, (2S)-2-(tert-Butoxy)-2-{4,27-dimethyl-26-oxa-1,5,7,8,17-pentaazahexacyclo[25.2.2.1^6,^9.1^10,^14.0^2,^7.0^15,^20]tritriaconta-2,4,6(33),8,10(32), 11, 13, 15 (20),16,18-decaen-3-yl}acetic acid]	2	
Cc1nc2cc3nn2c(c1[C@H](OC(C)(C)C)C(=O)O)N1CCC(C)(CC1)OC/C=C/COc1cc(F)ccc1-c1cccc-3c1 [Example 48, (2S)-2-(tert-Butoxy)-2-[(23E)-18-fluoro-4,2,7-dimethyl-21,26-dioxa-1,5,7,8-tetraazahexacyclo[25.2.2.1^6,^9.1^10,^14.0^2,^7.0^15,^20]tritriaconta-2,4,6(33),8,10(32),11,13,15(20),16,18,23-undecaen-3-yl]acetic acid]	11	
Cc1nc2cc3nn2c(c1[C@H](OC(C)(C)C)C(=O)O)-c1ccc2c(c1)[C@H](CC=CCOc1ccccc1-c1cccc-3c1)CCO2 (single isomer, unassigned) [Example 15]	4	
Cc1nc2cc3nn2c(c1[C@H](OC(C)(C)C)C(=O)O)N1CCC(C)(CC1)OCCCC[C@H](C)Oc1cc(F)ccc1-c1cccc-3c1 [Example 83, (2S)-2-(tert-Butoxy)-2-[(22S)-18-fluoro-4,22,28-trimethyl-21,27-dioxa-1,5,7,8-tetraazahexacyclo[26.2.2.1^6,^9.1^10,^14.0^2,^7.0^15,^20]tetratriaconta-2,4, 6(34), 8, 10(33), 11, 13, 15(20),16,18-decaen-3-yl]acetic acid]	25	
Cc1ccc2c(c1)O[C@@H](C)CC=CCOC1(C)CCN(CC1)c1c([C@H](OC(C)(C)C)C(=O)O)c(C)nc3cc(nn13)-c1cccc-2c1 [Example 105, (2S)-2-(tert-Butoxy)-2-[(22S)-4,18,22,28-tetramethyl-21,27-dioxa-1,5,7,8-tetraazahexacyclo[26.2.2.1^6,^9.1^10,^14.0^2,^7.0^15,^20]tetratriaconta-2,4,6(34),8,10(33), 11, 13, 15(20),16,18,24-undecaen-3-yl]acetic acid]	28	
Cc1cc2c(cc1Cl)-c1cccc(c1)-c1cc3nc(C)c([C@H](OC(C)(C)C)C(=O)O)c(n3n1)N1CCC(C)(CC1)OCCCC[C@@H](C)O2 [Example 90, (2S)-2-(tert-Butoxy)-2-[(22R)-17-chloro-4,18,22,28-tetramethyl-21,27-dioxa-1,5,7,8-tetraazahexacyclo[26.2.2.1^6,^9.1^10,^14.0^2,^7.0^15,^20]tetratriaconta-2,4, 6(34), 8, 10(33), 11, 13, 15 (20),16,18-decaen-3-yl]acetic acid]	157	
Cc1nc2cc3nn2c(c1[C@H](OC(C)(C)C)C(=O)O)N1CCC(C)(CC1)OC/C=C/CCc1ccncc1-c1cccc-3c1 [Example 36, (2S)-2-(tert-Butoxy)-2-[(23E)-4,27-dimethyl-26-oxa-1,5,7,8,17-pentaazahexacyclo[25.2.2.1^6,^9.1^10,^14.0^2,^7.0^15,^20]tritriaconta-2,4,6(33),8,10(32),11,13,15(20),16,18,23-undecaen-3-yl]acetic acid]	34	
